Source: PubChem BioAssay (NCI)
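Briefly, cells in 96-well plates were exposed to five compound concentrations for 48 h, and endpoints were estimated by linear interpolation. At the TGI there is no net growth.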

Experiments:
Assay in all cases: DTP human tumour cell line panel, 48 h
786-0 renal = test system: 786-0 renal
A498 renal = test system: A498 renal
A549 NSCLC = test system: A549 NSCLC
ACHN renal = test system: ACHN renal
BT-549 breast = test system: BT-549 breast
CAKI-1 renal = test system: CAKI-1 renal
CCRF-CEM leukemia = test system: CCRF-CEM leukemia
COLO 205 colon = test system: COLO 205 colon
DU-145 prostate = test system: DU-145 prostate
EKVX NSCLC = test system: EKVX NSCLC
HCC-2998 colon = test system: HCC-2998 colon
HCT-116 colon = test system: HCT-116 colon
HCT-15 colon = test system: HCT-15 colon
HL-60(TB) leukemia = test system: HL-60(TB) leukemia
HOP-62 NSCLC = test system: HOP-62 NSCLC
HOP-92 NSCLC = test system: HOP-92 NSCLC
HS 578T breast = test system: HS 578T breast
HT29 colon = test system: HT29 colon
IGROV1 ovarian = test system: IGROV1 ovarian
K-562 leukemia = test system: K-562 leukemia
KM12 colon = test system: KM12 colon
LOX IMVI melanoma = test system: LOX IMVI melanoma
M14 melanoma = test system: M14 melanoma
MALME-3M melanoma = test system: MALME-3M melanoma
MCF7 breast = test system: MCF7 breast
MDA-MB-435 = test system: MDA-MB-435
MDA-N = test system: MDA-N
MOLT-4 leukemia = test system: MOLT-4 leukemia
NCI-H226 lung = test system: NCI-H226 lung
NCI-H23 lung = test system: NCI-H23 lung
NCI-H460 lung = test system: NCI-H460 lung
NCI-H522 lung = test system: NCI-H522 lung
NCI/ADR-RES ovarian = test system: NCI/ADR-RES ovarian
OVCAR-3 ovarian = test system: OVCAR-3 ovarian
OVCAR-4 ovarian = test system: OVCAR-4 ovarian
OVCAR-5 ovarian = test system: OVCAR-5 ovarian
OVCAR-8 ovarian = test system: OVCAR-8 ovarian
PC-3 prostate = test system: PC-3 prostate
RPMI-8226 leukemia = test system: RPMI-8226 leukemia
RXF 393 renal = test system: RXF 393 renal
SF-268 CNS = test system: SF-268 CNS
SF-295 CNS = test system: SF-295 CNS
SF-539 CNS = test system: SF-539 CNS
SK-MEL-2 melanoma = test system: SK-MEL-2 melanoma
SK-MEL-28 melanoma = test system: SK-MEL-28 melanoma
SK-MEL-5 melanoma = test system: SK-MEL-5 melanoma
SN12C renal = test system: SN12C renal
SNB-19 CNS = test system: SNB-19 CNS
SNB-75 CNS = test system: SNB-75 CNS
SR leukemia = test system: SR leukemia
SW-620 colon = test system: SW-620 colon
T-47D breast = test system: T-47D breast
TK-10 renal = test system: TK-10 renal
U251 CNS = test system: U251 CNS
UACC-257 melanoma = test system: UACC-257 melanoma
UACC-62 melanoma = test system: UACC-62 melanoma
UO-31 renal = test system: UO-31 renal

Measured: TGI

C/C=N\n1c(C)n[nH]c1=O
> 100 µM: all assays above
